In the NIST ThermoML archive (doi:10.1021/acs.jced.9b00078):

Assay: xn = mol fraction of the nth substance listed
Conditions: Liquid, Other PVT measurement

CCCCCCCCCCCCCCCC [hexadecane] + O=C=O
mass density [kg/m3]
Conditions | 303.2 K | 313.2 K | 333.2 K | 353.2 K | 373.2 K | 393.2 K | 413.2 K | 433.2 K | 453.2 K | 473.2 K
10000 kPa, x2 = 0.2555 | 780.45 | 773.23 | 758.92 | 744.43 | 729.96 | 715.39 | 700.19 | 685.46 | 670.23 | 654.67
10000 kPa, x2 = 0.3703 | – | 778.18 | 759.26 | 746.79 | 731.25 | 715.75 | 698.68 | 681.51 | 664.54 | 647.28
20000 kPa, x2 = 0.2555 | 787.34 | 780.1 | 766.68 | 753 | 739.28 | 725.96 | 712.05 | 698.1 | 684 | 670.22
20000 kPa, x2 = 0.3703 | 793.48 | 785.88 | 771.19 | 756.53 | 742.07 | 727.42 | 712.39 | 697.06 | 681.26 | 665.86
30000 kPa, x2 = 0.2555 | 794.56 | 787.59 | 774.7 | 761.96 | 749.11 | 736.15 | 723.64 | 710.65 | 697.79 | 684.48
30000 kPa, x2 = 0.3703 | 801.32 | 793.73 | 780.08 | 766.24 | 752.26 | 738.82 | 725.13 | 711.36 | 697.06 | 683.13
30000 kPa, x2 = 0.7348 | 839.16 | 828.9 | 807.53 | 785.71 | 763.15 | 741.75 | 718.23 | 696.05 | 671.94 | 647.71
30000 kPa, x2 = 0.8645 | 872.71 | 857.83 | 827.32 | 793.96 | 758.29 | 725.26 | 688.46 | 649.67 | 613.21 | 578.59
40000 kPa, x2 = 0.2555 | 800.47 | 793.9 | 781.61 | 769.42 | 757.25 | 745.02 | 732.84 | 721.13 | 708.66 | 696.75
40000 kPa, x2 = 0.3703 | 807.74 | 800.81 | 787.53 | 774.17 | 761.32 | 748.53 | 735.68 | 723.06 | 709.8 | 697.04
40000 kPa, x2 = 0.7348 | 848.5 | 839.65 | 821.38 | 800.32 | 779.76 | 758.8 | 738 | 717.02 | 695.98 | 675.69
40000 kPa, x2 = 0.8645 | 885.49 | 870.69 | 840.65 | 812.52 | 785.33 | 757.98 | 729.63 | 702.92 | 673.61 | 644.14
50000 kPa, x2 = 0.2555 | 807.2 | 800.32 | 788.15 | 776.26 | 764.83 | 753.11 | 741.57 | 730.38 | 718.53 | 707.53
50000 kPa, x2 = 0.3703 | 814.58 | 807.06 | 794.36 | 782.12 | 769.45 | 756.96 | 744.66 | 732.8 | 720.85 | 708.83
50000 kPa, x2 = 0.7348 | 860.91 | 850.12 | 831.42 | 812.92 | 793.19 | 773.38 | 755.78 | 736.34 | 717.38 | 698.15
50000 kPa, x2 = 0.8645 | 900.22 | 885.44 | 859.09 | 833.73 | 810.58 | 783.06 | 759.09 | 735.07 | 709.83 | 685.57
